Here are results for six compounds from patent publication US8937167B2 (Washington University, priority 2009, dated 2015).

The target in test [1] is T1, FimH (Escherichia coli, UniProt P08191). Nature of the test: biochemical. The test is classed as binding, E. coli. Conditions: FP assay potency.
Source text: In order to more accurately determine the relative contributions of both binding affinity to FimH versus other compound properties to the potency seen in the cellular HA titer assay, a high-throughput fluorescence polarization (FP) (or anisotropy) competitive binding assay was developed using a fluorescent-labeled mannoside ligand shown in Scheme 4.
A fluorescent polarization assay was developed and miniaturized to monitor the direct binding of a synthesized fluorescently labeled butyl mannose derivative to the FimH receptor as well as competitive displacement by other synthetic mannosides. This fluorescent polarization assay provides a rapid method for monitoring improvements to receptor affinity during the synthetic process, as well as providing Kd binding affinity measurements.
Test [2] deals with T1, FimH. Conditions: previously reported, SPR, cited from earlier work.
Another test deals with UTI89 biofilm. Nature of the test: Biofilm in human urine under flow on silicone tubing (crystal violet, CFU). Conditions: 1% in human urine, 24 h. The format is cell-based, uropathogenic E. coli UTI89. How it is done:
Biofilms were grown as described by Ferrieres et al. (2007; FEMS Immun. Med. Micro 51:212) on All Silicone Foley catheters (Bard Medical, GA) or silicone tubing (Thermo Fisher Scientific Inc., PA) and modified as follows. All tubing and connectors in the system were autoclaved and ethanol sterilized prior to use. The system was assembled similar to the previously described flow-chamber system. Priming of the catheter or the silicone tubing occurred at 37° C. for 20 min by flowing pre-warmed pooled human urine. Urine was collected from healthy volunteers as approved by the Institutional Review Board of Washington University in St. Louis. Pooled samples were spun at 10000×g for 15 min, filtered through […], and, if necessary, stored at 4° C. for no more than 3 days. Three milliliters of stationary-phase E. coli from overnight cultures were diluted to 1−2×10^6 CFU/ml in human urine and injected into the catheter or silicone tubing using a 30 cc gauge needle. The bacteria were allowed to attach to the substratum for 1 h before urine flow via Watson-Marlow peristaltic pump 205S was resumed at 0.5 ml min^−1. […] Viable bacterial counts were assessed by serial dilution on LB plate with appropriate antibiotics. […] The bound crystal violet was then dissolved in 200 μl of 33% acetic acid and absorbance measured at 595 nm. The amount of biofilm was expressed as CFU/ml per cm^2 and A595/cm^2. […]

For test [3], the system named is UTI89. Nature of the test: Growth curve / MIC determination in LB. The test is classed as cell-based, E. coli (UPEC). Conditions: Escherichia coli. How it is done: (§1) Mannoside 6 was added at 100 μM. Growth curves were performed in a 96-well plate at 37° C. with A600 readings taken every 30 min for 8 h. Minimum inhibitory concentration (MIC) was calculated as the lowest concentration of antibiotic that prevented growth of the bacterial strain.

A further test deals with PBC-1. Kind of test: Growth curve / MIC determination in LB. Conditions: PBC-1. The format is cell-based, E. coli (UPEC). How it is done:
Growth curve. […] Mannoside ZFH-2056 was added at 100 μM. Growth curves were performed in a 96-well plate at 37° C. with A600 readings taken every 30 min for 8 h.
as §1

Test [4] has as its system UTI89. Kind of test: Mouse UTI model, bladder bacterial titers (CFU). The test is classed as in vivo, E. coli (UPEC); host C3H/HeN mouse. Conditions: 6 hours post-infection, 1 mM mannoside treated bacteria. How it is done:
For mannoside treatment, bacteria were incubated with 1 mM ZFH56 prior to inoculation. Every 24 h for 3 days, mice were transurethrally inoculated with 1 mM ZFH56. For antibiotic treatment, mice were inoculated with UTI89 and immediately given antibiotics in the drinking water for 3 days. Antibiotics used were trimethoprim-sulfamethoxazole (SXT) at […], respectively. For dual treatment, bacteria were incubated with 1 mM ZFH56 prior to inoculation. Every 24 h for 3 days, mice were transurethrally inoculated with 1 mM ZFH56. Additionally, mice were immediately given antibiotics in the drinking water for 3 days as in the antibiotic only treatment. Urine was collected every day for 13 days. At 2 weeks, mice were sacrificed and bladders were titered.
UTI89 biofilm was grown in LB+/− mannoside for 24 h at 22° C. in PVC plates and quantitated using crystal violet. UTI89 biofilm for confocal microscopy was grown in LB for 24 h at 22° C. on PVC coverslips. Mannoside was then added and biofilm was grown for an additional 16 h. Coverslips were then washed in PBS, fixed in 2% paraformaldehyde and stained with SYTO9 prior to confocal microscopy. For all animal experiments UTI89 or PBC-1 was grown 2×24 h statically in LB at 37° C. and inoculated at a dose of 1×10^7 bacteria in 50 μl. All mice used were female C3H/HeN (Jackson). For the pretreatment studies, bacteria were incubated with mannoside for 20 min prior to inoculation into the mouse. […] For CFU counts, bladders were harvested at 6 hpi and placed in 1 mL PBS. Bladders were then homogenized, diluted and plated on LB. After growth at 37° C. overnight, bacterial counts were determined. LacZ staining and gentamicin protection assays were performed at 6 hpi. […] Water was changed daily with fresh antibiotics. Standard growth curve assays and hemagglutination assays were performed with TMP-SMZ. All statistical analysis performed was a two-tailed Mann-Whitney U test.
Animal infections. Bacteria were grown under type 1 pili-inducing conditions (2×24 h at 37° C. statically in LB). The bacteria were harvested and resuspended to an OD600 of 0.5 in PBS. Eight-week-old C3H/HeN (Harlan) female mice were anesthetized by inhalation of isoflurane and infected via transurethral catheterization with 50 μl of the bacterial suspension, resulting in 1-2×10^7 inoculum. At 6 hpi, mice were sacrificed by cervical dislocation under anesthesia and the bladders were immediately harvested and processed as described below. All animal studies using mice were approved by the Animal Studies Committee of Washington University (Animal Protocol Number 20100002).
Bladder tissue bacterial titer determination. Mannoside ZFH-2056 was administered either IP (5 mg/kg) or orally (100 mg/kg) 30 min prior to inoculation with UTI89. […]

Test [5] concerns UTI89. Kind of test: Enumeration of bladder IBCs by LacZ staining in infected mice. The format is in vivo, E. coli (UPEC); host C3H/HeN mouse. Conditions: 6 hours post-infection. How it is done:
After invasion, UPEC are able to rapidly replicate to form IBCs, thus dramatically expanding in numbers. After maturation of the IBC, bacteria are able to disperse from the biomass and spread to neighboring cells to expand the buildup in bacterial numbers via next generation IBC. The ability of mannosides to block IBC formation was evaluated based on LacZ staining of whole mount bladders, a protocol developed to enumerate IBCs. Whole bladder titers were also determined by quantifying colony forming units (CFUs) at 6 hours post-infection and later time points as test compounds were further developed.
Enumeration of bladder IBCs. For bacterial pretreatment experiments, mannoside was added to the bacterial suspension and incubated for 20 min. For animal pretreatment experiments, mannoside ZFH-2056 was administered either IP (5 mg/kg) or orally (100 mg/kg) 30 min prior to inoculation with UTI89. To accurately count the number of IBCs, mice were sacrificed 6 hpi and bladders were aseptically removed, bisected, splayed on silicone plates and fixed in 2% paraformaldehyde (v/v). IBCs, readily discernable as punctate violet spots, were quantified by LacZ staining of whole bladders.
For animal pretreatment experiments, mannoside ZFH-2056 was administered either IP (5 mg/kg) or orally (100 mg/kg) 30 min prior to inoculation with UTI89. To accurately count the number of IBCs, mice were sacrificed 6 hpi and bladders were aseptically removed, bisected, splayed on silicone plates and fixed in 2% paraformaldehyde (v/v). IBCs, readily discernable as punctate violet spots, were quantified by LacZ staining of whole bladders.

Test [6] concerns UTI89. Nature of the test: Ex vivo gentamicin protection assay of infected mouse bladders (luminal vs intracellular bacteria). The test is classed as in vivo, E. coli (UPEC); host mouse. Conditions: 1 hour post-infection, bacteria inoculated in presence of mannoside. The text has this:
Based on the extensive elucidation of the UPEC pathogenic cascade, critical nodes in pathogenesis that mannosides would target and thereby have powerful and potent therapeutic ramifications were identified. The first step in the UPEC pathway involves FimH-mediated colonization of the bladder epithelium via the recognition of mannose receptors. Bacterial invasion into superficial bladder umbrella cells can then ensue. […] To test this, a well-established gentamicin protection assay that allows the determination of the luminally bound fraction versus the intracellular fraction was utilized (FIG. 10). […] This may be due to contamination from bacteria in the urine or bacteria that are non-specifically associated with the epithelium. In any case, blocking invasion blocks the ability of the bacteria to rapidly expand in numbers. This is due to the ability of the mannosides to block the IBC mechanism.
Gentamicin protection assay. To enumerate bacteria present in the intracellular versus extracellular compartments, bladders were aseptically harvested at 6 hpi. The bladders were then bisected twice and washed three times in 500 μl of PBS each. The wash fractions were pooled, lightly spun at 500 rpm for 5 min to pellet exfoliated bladder cells, serially diluted, and plated onto LB agar to obtain the luminal fraction. The bladders were treated with 100 μg of gentamicin/ml for 90 min at 37° C. After treatment, the bladders were washed twice with PBS to eliminate residual gentamicin, homogenized in 1 ml of PBS, serially diluted, and plated onto LB agar to enumberate the CFUs in the intracellular fraction.
To enumerate bacteria present in the intracellular versus extracellular compartments, bladders were aseptically harvested at 6 hpi. The bladders were then bisected twice and washed three times in 500 μl of PBS each. The wash fractions were pooled, lightly spun at 500 rpm for 5 min to pellet exfoliated bladder cells, serially diluted, and plated onto LB agar to obtain the luminal fraction. The bladders were treated with 100 μg of gentamicin/ml for 90 min at 37° C. […]

Test [7] deals with FimH (Escherichia coli, UniProt Q1R2J4).

In brackets after ≈: the same amount, converted by molar mass. Entries after “also recorded” stand apart in the source; their conditions may differ. Like-named read-outs stand apart in the source and are kept apart here.
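Wherever HAI Titer EC>90 is given: hemagglutination inhibition of guinea pig erythrocytes agglutinated by type 1 piliated uropathogenic E. coli via FimH mannose binding, quantified through serial dilutions of compound.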

`CCCCCCCOC1OC(CO)C(O)C(O)C1O` (centres unmarked) [Heptyl mannoside, reference compound] displayed an EC50 on FimH [1] of 89 nM. Moreover, the dissociation constant Kd at FimH [2] was 5 nM.
On to `COC1O[C@H](CO)[C@@H](O)[C@H](O)[C@@H]1O` (some centres unmarked) [methyl mannose], for which, in the test with UTI89 biofilm, the “biofilm biomass (crystal violet)” value was “significantly reduced biomass; also recorded: prevents UPEC biofilm formation” and the “biofilm-adherent cells (CFU)” value is listed as “significantly reduced”.
In turn, `Cc1cc(NS(=O)(=O)c2ccc(N)cc2)no1` [SMZ, Sulfamethoxazole] displayed an MIC in the test on UTI89 [3] of 0.25 µg/mL (≈ 0.987 µM).
`COc1cc(Cc2cnc(N)nc2N)cc(OC)c1OC` [TMP, Trimethoprim]: the MIC in the test with PBC-1 (Escherichia coli, read-out: Minimum Inhibition Concentration (MIC)) worked out at 256 µg/mL (≈ 882 µM); in the test with PBC-1 it was 0.000256 µg/mL (≈ 0.000882 µM); against UTI89 [3], 0.05 µg/mL (≈ 0.172 µM).
Turning to `CCCCO[C@H]1O[C@H](CO)[C@@H](O)[C@H](O)[C@@H]1O` [butylmannoside, α-D-butylmannoside], the dissociation constant (Kd) at FimH [2] (read-out: KD) is 151 nM.
On to `NC(=O)c1cccc(OC2OC(CO)C(O)C(O)C2O)c1` (centres unmarked) [Compound 2ZFH98, 3-[3,4,5-trihydroxy-6-(hydroxymethyl)tetrahydropyran-2-yl]oxybenzamide], for which the “bladder CFUs / colonization” value in the test on UTI89 [4] was “significantly reduced colonization”. In addition, the IBCs entry in the test on UTI89 [5] (0.1 mM mannoside) and with UTI89 [5] (1 mM mannoside) was “significantly reduced IBCs” in each case. The intracellular bacteria entry with UTI89 [6] is “significant decrease”. The “HAI Titer EC>90” value at FimH [7] is 16.000 µM.

Broadly, the EC50 is the concentration at which the effect is half-maximal. A lower EC50 goes with greater potency. As usually defined, the Kd is the free concentration of one partner at which half of the binding sites on the other are occupied at equilibrium, for simple one-to-one binding.
